Results as given in patent US7550469B2, “Heterocyclic amide derivatives and their use as dopamine D3 receptor ligands” (Aventis Pharmaceuticals Inc., priority 2001, dated 2009).
Like-named read-outs stand apart in the source and are kept apart here.

Biological target: T1, cloned human dopamine D3 receptors (Homo sapiens, UniProt P35462)
T1 construct: expressed in transfected cells; membrane homogenate
Assay: [N-Methyl-3H]Spiroperidol binding to cloned human dopamine D3 receptors (Protocol 1)
Procedure, shortened: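 Radioligand displacement with [N-methyl-3H]spiroperidol used a physiological-salt Tris buffer (0.05 M, pH 7.7; NaCl 120 mM, KCl 5 mM, CaCl2 2 mM, MgCl2 1 mM) and membranes of a high-expressing stable CHO clone carrying human D3. Total ligand concentration came from measured added CPM; 0.1% ascorbic acid was optional for oxidizable compounds.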

[1] = the 13th table, unit inferred, read-out: D3Ki
[2] = the 14th table, read-out: D3 Ki
[3] = the 17th table, read-out: D3 Ki
[4] = the 18th table, read-out: D3 Ki
[5] = the 15th table, read-out: D3 Ki
[6] = the 21st table, read-out: D3 Ki
[7] = the 23rd table, read-out: D3 Ki
[8] = the 24th table, read-out: D3 Ki
[9] = the 22nd table, read-out: D3 Ki
[10] = the 16th table, read-out: D3 Ki

T1 sequence (P35462 whole entry): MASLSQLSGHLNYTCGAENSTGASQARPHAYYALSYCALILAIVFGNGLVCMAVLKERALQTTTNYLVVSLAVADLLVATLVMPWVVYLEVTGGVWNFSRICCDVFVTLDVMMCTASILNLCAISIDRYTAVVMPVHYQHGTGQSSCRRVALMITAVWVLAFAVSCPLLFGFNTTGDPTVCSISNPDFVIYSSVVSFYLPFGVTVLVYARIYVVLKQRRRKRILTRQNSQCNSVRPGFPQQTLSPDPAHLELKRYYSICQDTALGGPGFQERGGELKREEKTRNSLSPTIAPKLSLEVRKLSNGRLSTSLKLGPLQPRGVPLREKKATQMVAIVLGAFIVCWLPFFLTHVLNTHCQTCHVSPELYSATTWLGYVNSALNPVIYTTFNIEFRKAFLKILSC

O=C(NCCCCN1CCN(c2c(Cl)sc3cc(C(F)(F)F)ccc23)CC1)c1c(F)cccc1F [compound 815577]
Ki (read-out: D3K1): 95 nM

O=C(NCCCCN1CCCN(c2csc3cc(F)ccc23)CC1)c1c[nH]c2ccccc12 [S977822]
Ki [1]: 4.12 nM

O=C(NCCCCN1CCCN(c2csc3cc(F)ccc23)CC1)c1ccccc1I [S981851]
Ki [1]: 2.72 nM

O=C(N[C@H](CO)CCCN1CCN(c2csc3cc(C(F)(F)F)ccc23)CC1)c1ccc(-c2ccccc2)cc1 [compound 815694]
Ki (Table 2, read-out: D3K1): 197 nM
Ki (read-out: D3K1): 197 nM
Ki [2]: 197 nM

O=C(Cc1ccccc1)NC[C@@H]1CC1CN1CCCN(c2csc3cc(F)ccc23)CC1 (stereo partly shown) [compound 831204]
Ki [3]: 5.05 nM

CC(C)(C)c1ccc(C(=O)NCc2sccc2CN2CCN(c3csc4cc(F)ccc34)CC2)cc1 [compound 826309]
Ki [4]: 63 nM

O=C(NCCCCN1C2CCC1CC(c1noc3ccccc13)C2)C1CCCCC1 (stereo not shown) [compound 816524]
Ki [5]: 357 nM

O=C(NCCCCN1CCN(c2csc3cc(C(F)(F)F)ccc23)CC1)c1ccccc1Br [compound 815558]
Ki (read-out: D3K1): 23 nM

O=C(NCCCCN1CCCN(c2csc3cc(F)ccc23)CC1)c1cccc2c1-c1ccccc1C2=O [S982536]
Ki [1]: 1.4 nM

O=C(NCCCCCCN1CCN(c2csc3cc(C(F)(F)F)ccc23)CC1)c1ccc2cc[nH]c2c1 [compound 826742]
Ki (read-out: D3K1): 1.7 nM
Ki [2]: 1.7 nM

O=C(NCCCCN1C2CCC1CC(c1noc3ccccc13)C2)c1ccc(Br)cc1 (stereo not shown) [compound 816536]
Ki [5]: 140 nM

CCn1cc(C(=O)NC(CO)CCCN2CCN(c3csc4cc(C(F)(F)F)ccc34)CC2)c(=O)c2ccc(C)nc21 (stereo not shown) [compound 815704]
Ki (Table 2, read-out: D3K1): 137 nM
Ki (read-out: D3K1): 137 nM
Ki [2]: 137 nM

C[C@@H]1CN(c2csc3cc(F)ccc23)C[C@H](C)N1CCCCNC(=O)c1ccc2[nH]ccc2c1 [compound 826964]
Ki [6]: 32.2 nM

O=C(NCCCCCN1CCN(c2csc3cc(C(F)(F)F)ccc23)CC1)c1cccc(F)c1 [compound 826772]
Ki (read-out: D3K1): 7.8 nM
Ki [2]: 7.8 nM

O=C(NCC(CO)CCN1CCN(c2csc3cc(C(F)(F)F)ccc23)CC1)c1cc2ccccc2[nH]1 (stereo not shown) [818930ES]
Ki (Table 2, read-out: D3K1): 79.3 nM

O=C(NCc1sccc1CN1CCN(c2csc3cc(F)ccc23)CC1)c1ccc(-c2ccccn2)s1 [818320G]
Ki [4]: 11.2 nM

COc1ccccc1C(=O)NCCCCN1CCN(c2c(Cl)sc3cc(F)ccc23)CC1 [compound 815066]
Ki (read-out: D3K1): 28.7 nM

CC1=C(C(=O)NCC(CO)CCN2CCN(c3csc4cc(C(F)(F)F)ccc34)CC2)Cc2ccccc21 (stereo not shown) [818934ES]
Ki (Table 2, read-out: D3K1): 218 nM

C[C@@H]1CN(c2csc3cc(C(F)(F)F)ccc23)C[C@H](C)N1CCCCNC(=O)c1cc2ccccc2s1 [compound 827045]
Ki [6]: 97.8 nM

C[C@@H]1CN(c2csc3cc(F)ccc23)C[C@H](C)N1CCCCNC(=O)c1ccc(C(C)(C)C)cc1 [compound 826944]
Ki [6]: 128 nM

Cc1oc(-c2ccccc2)cc1C(=O)NCCCCN1CCCN(c2csc3cc(C(F)(F)F)ccc23)CC1 [S980662]
Ki [1]: 48 nM

C[C@@H]1CN(c2csc3cc(F)ccc23)C[C@H](C)N1CCCCNC(=O)c1cccnc1Cl [compound 826948]
Ki [6]: 154 nM

CCOc1ccc(C(=O)NCCCCN2CCC(c3noc4ccsc34)CC2)cc1 [compound 815152]
Ki [1]: 158 nM

COc1cc(OC)cc(C(=O)NCc2sccc2CN2CCN(c3csc4cc(F)ccc34)CC2)c1 [compound 826297]
Ki [4]: 31 nM

COc1ccc(C(=O)NCCCCN2CCN(c3c(Cl)sc4cc(F)ccc34)CC2)cc1OC [compound 815062]
Ki (read-out: D3K1): 4.1 nM

CC(C)C(=O)NCCCCN1CCN(c2csc3cc(C(F)(F)F)ccc23)CC1 [compound 811700]
Ki (read-out: D3K1): 42.1 nM

CC1=C(C(=O)NCCCCCN2CCN(c3csc4cc(C(F)(F)F)ccc34)CC2)Cc2ccccc21 [compound 826802]
Ki (Table 2, read-out: D3K1): 16.9 nM
Ki [2]: 16.9 nM

COc1cccc(C(=O)NCCCCN2CCCN(c3csc4cc(C(F)(F)F)ccc34)CC2)c1 [S980640]
Ki [1]: 43 nM

FC(F)(F)Oc1cccc(CNCC2CC2CN2CCN(c3csc4cc(C(F)(F)F)ccc34)CC2)c1 (racemic) [compound 832181]
Ki [7]: 16 nM

COc1ccc(S(=O)(=O)NCC2CC2CN2CCN(c3csc4cc(C(F)(F)F)ccc34)CC2)cc1 (stereo not shown) [compound 831500]
Ki [8]: 28.1 nM

O=C(NCCCCCN1CCCN(c2csc3cc(F)ccc23)CC1)c1c2ccccc2cc2ccccc12 [S982542]
Ki [1]: 57 nM

COc1ccc(S(=O)(=O)NCC2CC2CN2CCC(c3noc4ccsc34)CC2)cc1 (stereo not shown) [compound 831464]
Ki [8]: 43.3 nM

Cn1c(C(=O)NCc2sccc2CN2CCN(c3csc4cc(F)ccc34)CC2)cc2ccccc21 [compound 826324]
Ki [4]: 120 nM

O=C(NCCCCN1CCCN(c2csc3cc(F)ccc23)CC1)c1ccc(F)cc1 [S981846]
Ki [1]: 26.9 nM

O=C(N[C@H](CO)CCCN1CCN(c2csc3cc(C(F)(F)F)ccc23)CC1)c1cnccn1 [compound 815702]
Ki (Table 2, read-out: D3K1): 439 nM
Ki (read-out: D3K1): 439 nM
Ki [2]: 439 nM

O=C(NCCCCN1CCCN(c2csc3cc(C(F)(F)F)ccc23)CC1)c1cccc(Cl)c1 [S980628]
Ki [1]: 110 nM

O=C(NCCCCN1CCN(c2nn(C(=O)c3cc4ccccc4s3)c3ccsc23)CC1)c1cc2ccccc2s1 [compound 825164]
Ki [9]: 10.4 nM

O=C(Nc1cccc(CN2CCN(c3csc4cc(F)ccc34)CC2)c1)c1ccc2[nH]nnc2c1 [compound 825656]
Ki (the 19th table, read-out: D3 Ki): 33 nM

CCCCOC(=O)NCC1CC1CN1CCC(c2noc3ccsc23)CC1 (stereo not shown) [compound 831696]
Ki (the 25th table, read-out: D3 Ki): 29.3 nM

O=C(NCCCCN1C2CCC1CC(c1noc3ccccc13)C2)c1cccs1 (stereo not shown) [compound 816519]
Ki [5]: 305 nM

C[C@@H]1CN(c2csc3cc(F)ccc23)C[C@H](C)N1CCCCNC(=O)c1cnc2ccccc2n1 [compound 826945]
Ki [6]: 133 nM

O=C(NCCCCN1CCCN(c2csc3cc(C(F)(F)F)ccc23)CC1)c1ccc(-c2ccccc2)cc1 [S980641]
Ki [1]: 29 nM

CC1CCCCN1CCCNC[C@@H]1C[C@H]1CN1CCN(c2csc3cc(C(F)(F)F)ccc23)CC1 (mixture of isomers) [compound 832277]
Ki [7]: 29.4 nM

O=C(NCCCCN1CCCN(c2csc3cc(C(F)(F)F)ccc23)CC1)c1cc2ccccc2o1 [S984513]
Ki [1]: 19 nM

O=C(NCCCCN1CCN(c2noc3ccsc23)CC1)c1ccc(-c2ccccc2)cc1 [compound 829680]
Ki [9]: 14.7 nM

COc1ccc(C(=O)NC(CO)CCCN2CCN(c3csc4cc(C(F)(F)F)ccc34)CC2)cc1OC (stereo not shown) [compound 815689]
Ki (Table 2, read-out: D3K1): 225 nM
Ki (read-out: D3K1): 225 nM
Ki [2]: 225 nM

O=S(=O)(NC[C@@H]1C[C@H]1CN1CCN(c2csc3cc(C(F)(F)F)ccc23)CC1)c1ccc(F)cc1 (racemic) [compound 831495, 4-Fluoro-N-{2R-[4-(6-trifluoromethyl-benzo[b]thiophen-3-yl)-piperazin-1-ylmenthyl]-1R-cyclopropylmethyl}-benzenesulfonamide]
Ki [8]: 35.1 nM

O=C(NCc1sccc1CN1CCN(c2csc3cc(F)ccc23)CC1)c1cccc(F)c1 [compound 826303]
Ki [4]: 64 nM

O=C(NCCCCN1C2CCC1CC(c1noc3cc(F)ccc13)C2)c1ccc(-c2ccccc2)cc1 (stereo not shown) [compound 816331]
Ki [5]: 44.2 nM

C[C@@H]1CN(c2csc3cc(C(F)(F)F)ccc23)C[C@H](C)N1CCCCNC(=O)c1cnc2ccccc2n1 [compound 826935]
Ki [6]: 268 nM

O=C(NCC1CC1CN1CCCN(c2csc3cc(F)ccc23)CC1)c1ccc(C(F)(F)F)cc1 (racemic) [compound 830404]
Ki [3]: 51.9 nM

O=C(NCCCCCN1CCN(c2csc3cc(C(F)(F)F)ccc23)CC1)c1cc2ccccc2s1 [compound 826773]
Ki (read-out: D3K1): 11 nM
Ki [2]: 11 nM

Cc1oc(-c2ccc(Cl)cc2)cc1C(=O)NCCCCN1CCCN(c2csc3cc(C(F)(F)F)ccc23)CC1 [S980663]
Ki [1]: 96 nM

O=C(NCCCCCN1CCC(c2noc3ccsc23)CC1)C1CCCC1 [compound 816205]
Ki [1]: 455 nM

O=C(NCCCCN1CCN(c2c(-c3ccccc3)sc3cc(F)ccc23)CC1)c1ccc(C(F)(F)F)cc1 [compound 815871]
Ki (Table 2, read-out: D3K1): 796 nM
Ki [2]: 796 nM

O=C(NCCCCN1CCN(c2c(Cl)sc3cc(C(F)(F)F)ccc23)CC1)c1cccs1 [compound 815566]
Ki (read-out: D3K1): 32 nM

O=C(NCCCCCN1CCN(c2csc3cc(F)ccc23)CC1)c1cc2ccccc2[nH]1 [compound 826784]
Ki [2]: 3.28 nM

O=C(NCCCCN1CCN(c2c(Cl)sc3cc(C(F)(F)F)ccc23)CC1)c1ccc(Cl)cc1 [compound 815568]
Ki (read-out: D3K1): 30 nM

Nc1cc2ccccc2cc1C(=O)NCCCCN1CCCN(c2csc3cc(F)ccc23)CC1 [compound 817259]
Ki (Table 2, read-out: D3K1): 2.93 nM
Ki [10]: 2.93 nM

CC(C)c1ccc(CNCC2CC2CN2CCN(c3csc4cc(C(F)(F)F)ccc34)CC2)cc1 (racemic) [compound 832182]
Ki [7]: 98 nM

COc1ccccc1C(=O)NCCCCN1CCN(c2nn(C(=O)c3ccccc3OC)c3ccsc23)CC1 [compound 825145]
Ki [9]: 174 nM

CC[C@H]1CC[C@H](NC[C@@H]2C[C@H]2CN2CCN(c3ccc(C)cc3C)CC2)CC1 [compound 832266]
Ki [7]: 29.6 nM

Cn1c(C(=O)NCCCCN2CCCN(c3csc4cc(C(F)(F)F)ccc34)CC2)cc2ccccc21 [S980648]
Ki [1]: 35 nM

O=C(NCCCCN1CCN(c2noc3ccsc23)CC1)c1ccc(Cl)cc1 [compound 829675]
Ki [9]: 38.9 nM

COc1cc(OC)cc(C(=O)N(Cc2ccccc2)CC2CC2CN2CCCN(c3csc4cc(F)ccc34)CC2)c1 (racemic) [compound 830396]
Ki [3]: 16.5 nM

O=C(NCCCCCN1CCCN(c2csc3cc(F)ccc23)CC1)c1cnc(-c2cccnc2)s1 [S984497]
Ki [1]: 49.3 nM

Nc1ccc(O)cc1C(=O)NCCCCN1CCCN(c2csc3cc(F)ccc23)CC1 [compound 817264]
Ki (Table 2, read-out: D3K1): 6.44 nM
Ki [10]: 6.44 nM
